Assay results reported in patent publication US7919487B2, “Heteroaryl compounds” (Synta Pharmaceuticals Corporation, priority 2004, dated 2011).

Tested on: IL-12 production in human PBMC or THP-1 cells
Assay: Human in vitro assay: inhibition of IL-12 production in human PBMC or THP-1 cells (ELISA)
Assay type: cell-based
Details: THP-1, human PBMC or THP-1 cells, IFNγ plus LPS or SAC stimulation, representative in vitro data
From the text: The biological activities of the compounds of the invention can be evaluated by a number of cell-based assays. One of such assays can be conducted using cells from human peripheral blood mononuclear cells (PBMC) or human monocytic cell line (THP-1). The cells are stimulated with a combination of human interferon-γ (IFNγ) and lipopolysaccharide or a combination of IFNγ and Staphylococcus aureus Cowan I in the presence of a test compound. The level of inhibition of IL-12 production can be measured by determining the amount of p70 by using a sandwich ELISA assay with anti-human IL-12 antibodies. IC50 of the test compound can then be determined. Specifically, PBMC or THP-1 cells are incubated with the test compound. Cell viability was assessed using the bioreduction of MTS [3-(4,5-dimethylthiazol-2-yl)-5-(3-carboxymethoxyphenyl)-2-(4-sulfophenyl)-2H-tetrazolium] (Promega, Madison, Wis.).
Reagents. Staphylococcus aureus Cowan I (SAC) was obtained from Calbiochem (La Jolla, Calif.), and lipopolysaccharide (LPS, Serratia marscencens) was obtained from Sigma (St Louis, Mo.). Human and mouse recombinant IFNγ were purchased from Boehringer Mannheim (Mannheim, Germany) and Pharmingen (San Diego, Calif.), respectively.
Human In Vitro Assay. Human PBMC were isolated by centrifugation using Ficoll-Paque (Pharmacia Biotech, Uppsala, Sweden) and prepared in RPMI medium supplemented with 10% fetal calf serum (FCS), 100 U/mL penicillin, and 100 μg/mL streptomycin. PBMC were plated in wells of a 96-well plate at a concentration of 5×10^5 cells/well, and primed by adding IFNγ (30 U/mL) for 22 h and stimulated by adding LPS (1 μg/mL), or by adding IFNγ (100 U/mL) and then stimulated by adding SAC (0.01%). A test pyrimidine compound was dissolved in DMSO, and added to wells of the 96-well plate. The final DMSO concentration was adjusted to 0.25% in all cultures, including the compound-free control. Human THP-1 cells were plated in wells, primed by adding IFNγ (100 U/mL) for 22 h and stimulated by adding SAC (0.025%) in the presence of different concentrations of the pyrimidine compound. Cell-free supernatants were taken 18 h later for measurement of cytokines. Cell viability was assessed using the bioreduction of MTS. Cell survival was estimated by determining the ratio of the absorbance in compound-treated groups versus compound-free control.
The supernatant was assayed for the amount of IL-12p40, IL-12p70, or IL-10 by using a sandwich ELISA with anti-human antibodies, i.e., a Human IL-12 p40 ELISA kit from R&D Systems (Berkeley, Calif.), and a Human IL-12 p70 or IL-10 ELISA kit from Endogen (Cambridge, Mass.). Assays were based on the manufacturer's instructions.
The biological activities of compounds were tested on human PBMC or THP-1 cells.

| Compound | IC50 [nM] |
| --- | --- |
| COc1nc(N/N=C/c2cn(C)c3ccccc23)nc(N(C(C)C)C(C)C)n1 [Compound 1, Diisopropyl-{4-methoxy-6-[N′-(1-methyl-1H-indol-3-ylmethylene)-hydrazino]-[1,3,5]triazin-2-yl}-amine] | 13000 |
| COc1nc(N/N=C/c2c[nH]c3ccccc23)nc(N(C(C)C)C(C)C)n1 [Compound 2, {4-[N′-(1H-Indol-3-ylmethylene)-hydrazino]-6-methoxy-[1,3,5]triazin-2-yl}-diisopropyl-amine] | 13600 |
| COc1nc(N/N=C/c2c[nH]c3c(C)cccc23)nc(N(C(C)C)C(C)C)n1 [Compound 3, Diisopropyl-{4-methoxy-6-[N′-(7-methyl-1H-indol-3-ylmethylene)-hydrazino]-[1,3,5]triazin-2-yl}-amine] | 7800 |
| COc1nc(N/N=C/c2c[nH]c3ccc(F)cc23)nc(N(C(C)C)C(C)C)n1 [Compound 4, {4-[N′-(5-Fluoro-1H-indol-3-ylmethylene)-hydrazino]-6-methoxy-[1,3,5]triazin-2-yl}-diisopropyl-amine] | 13000 |
| COc1nc(N/N=C/c2cn(C(C)=O)c3ccccc23)nc(N(C(C)C)C(C)C)n1 [Compound 5, 1-{3-[(4-Diisopropylamino-6-methoxy-[1,3,5]triazin-2-yl)-hydrazonomethyl]-indol-1-yl}-ethanone] | 12000 |
| COc1ccc(CCOc2nc(N/N=C/c3c[nH]c4ccccc34)nc(N3CCSC3)n2)cc1OC [Compound 7, N-{4-[2-(3,4-Dimethoxy-phenyl)-ethoxy]-6-thiazolidin-3-yl-[1,3,5]triazin-2-yl}-N′-(1H-indol-3-ylmethylene)-hydrazine] | 20 to 53 |
| C(=N\Nc1nc(OCCc2ccccn2)nc(N2CCC3(CC2)OCCO3)n1)/c1c[nH]c2ccccc12 [Compound 8, N-[4-(1,4-Dioxa-8-aza-spiro[4.5]dec-8-yl)-6-(2-pyridin-2-yl-ethoxy)-[1,3,5]triazin-2-yl]-N′-(1H-indol-3-ylmethylene)-hydrazine] | 500 |
| O=C1CCN(c2nc(N/N=C/c3c[nH]c4ccccc34)nc(OCCc3ccccn3)n2)CC1 [Compound 11, 1-[4-[N′-(1H-Indol-3-ylmethylene)-hydrazino]-6-(2-pyridin-2-yl-ethoxy)-[1,3,5]triazin-2-yl]-piperidin-4-one] | 500 |
| COc1ccc(CCOc2nc(N/N=C/c3cccc(C)c3)cc(N(C)C)n2)cc1OC [Compound 15, {2-[2-(3,4-Dimethoxy-phenyl)-ethoxy]-6-[N′-(3-methyl-benzylidene)-hydrazino]-pyrimidin-4-yl}-dimethyl-amine] | 20 to 56 |
| COc1ccc(CCOc2cc(N(C)C)nc(N/N=C/c3cccc(C)c3)n2)cc1OC [Compound 16, {6-[2-(3,4-Dimethoxy-phenyl)-ethoxy]-2-[N′-(3-methyl-benzylidene)-hydrazino]-pyrimidin-4-yl}-dimethyl-amine] | 1060 |
| COc1ccc(CCNc2nccc(N/N=C/c3cccc(C)c3)n2)cc1OC [Compound 17, [2-(3,4-Dimethoxy-phenyl)-ethyl]-{4-[N′-(3-methyl-benzylidene)-hydrazino]-pyrimidin-2-yl}-amine] | 636 |
| Cc1cccc(/C=N/Nc2cc(N)nc(N/N=C/c3cccc(C)c3)n2)c1 [Compound 19, 2,6-Bis-[N′-(3-methyl-benzylidene)-hydrazino]-pyrimidin-4-ylamine] | 119 |
| COc1ccc(CCOc2nc(N/N=C/c3cccc(C)c3)nc(-n3ccnc3)n2)cc1OC [Compound 21, N-{4-[2-(3,4-Dimethoxy-phenyl)-ethoxy]-6-imidazol-1-yl-[1,3,5]triazin-2yl}-N′-(3-methyl-benzylidene)-hydrazine] | 103 |
| Cc1cccc(/C=N/Nc2nc(CCCO)cc(N(C)C)n2)c1 [Compound 27, 3-{6-Dimethylamino-2-[N′-(3-methyl-benzylidene)-hydrazino]-pyrimidin-4-yl}-propan-1-ol] | 9000 |
| Cc1cccc(/C=N/Nc2nc(CCCOC(=O)Nc3ccc([N+](=O)[O-])cc3)cc(N(C)C)n2)c1 [Compound 28, (4-Nitro-phenyl)-carbamic acid 3-{6-dimethylamino-2-[N′-(3-methyl-benzylidene)-hydrazino]-pyrimidin-4-yl}-propyl ester] | 1400 |
| Cc1cccc(/C=N/Nc2nc(CCCOC(=O)Nc3ccc(C(F)(F)F)cc3)cc(N(C)C)n2)c1 [Compound 29, (4-Trifluoromethyl-phenyl)-carbamic acid 3-{6-dimethylamino-2-[N′-(3-methyl-benzylidene)-hydrazino]-pyrimidin-4-yl}-propyl ester] | 10000 |

| Compound | IC50 [nM] |
| --- | --- |
| CCN(CC)c1cc(N/N=C/c2cccc(C)c2)nc(OCCN2CCOCC2)n1 [Compound 30, Diethyl-[6-[N′-(3-methyl-benzylidene)-hydrazino]-2-(2-morpholin-4-yl-ethoxy)-pyrimidin-4-yl]-amine] | 875 |
| COCCN(C)c1cc(N/N=C/c2cccc(C)c2)nc(OCCN2CCOCC2)n1 [Compound 31, (2-Methoxy-ethyl)-methyl-[6-[N′-(3-methyl-benzylidene)-hydrazino]-2-(2-morpholin-4-yl-ethoxy)-pyrimidin-4-yl]-amine] | 674 |
| O=C(Nc1ccc2c(c1)CCC2)Nc1cccc(-c2ccncc2)n1 [Compound 100, 1-[2,4′]Bipyridinyl-6-yl-3-indan-5-yl-urea] | 148 |
| Cc1[nH]c2ccc(NC(=O)c3cc(OCCN4CCOCC4)cc(-c4ccncc4)n3)cc2c1C [Compound 101, 4-(2-Morpholin-4-yl-ethoxy)-[2,4′]bipyridinyl-6-carboxylic acid (2,3-dimethyl-1H-indol-5-yl)-amide] | 20 |
| COCCN(C)c1cc(C(=O)Nc2ccc3[nH]c(C)c(C)c3c2)nc(-c2ccncc2)c1 [Compound 102, 4-[(2-Methoxy-ethyl)-methyl-amino]-[2,4′]bipyridinyl-6-carboxylic acid(2,3-dimethyl-1H-indol-5-yl)-amide] | 2.6 |
| Cc1[nH]c2ccc(NC(=O)c3cccc(-c4ccncc4F)n3)cc2c1C [Compound 103, 3′-Fluoro-[2,4′]bipyridinyl-6-carboxylic acid(2,3-dimethyl-1H-indol-5-yl)-amide] | 158 |
| Cc1[nH]c2ccc(NC(=O)c3cccc(-c4cncnc4)n3)cc2c1C [Compound 104, 6-Pyrimidin-5-yl-pyridine-2-carboxylic acid(2,3-dimethyl-1H-indol-5-yl)-amide] | > 1000 |
| Cc1[nH]c2ccc(NC(=O)c3cccc(-c4ccsc4)n3)cc2c1C [Compound 105, 6-Thiophen-3-yl-pyridine-2-carboxylic acid(2,3-dimethyl-1H-indol-5-yl)-amide] | > 1000 |
| Cc1[nH]c2ccc(NC(=O)c3cccc(-c4cccnc4)n3)cc2c1C [Compound 106, [2,3′]Bipyridinyl-6-carboxylic acid(2,3-dimethyl-1H-indol-5-yl)-amide] | > 1000 |
| Cc1[nH]c2ccc(NC(=O)c3cccc(-c4ccnc(F)c4)n3)cc2c1C [Compound 107, 2′-Fluoro-[2,4′]bipyridinyl-6-carboxylic acid(2,3-dimethyl-1H-indol-5-yl)-amide] | 193 |
| Cc1[nH]c2ccc(NC(=O)c3cccc(-c4cn[nH]c4)n3)cc2c1C [Compound 108, 6-(1H-Pyrazol-4-yl)-pyridine-2-carboxylic acid(2,3-dimethyl-1H-indol-5-yl)-amide] | 218 |
| Cc1cccc(/C=N/Nc2cc(OCCN3CCOCC3)nc(-c3ccncc3)n2)c1 [Compound 141, (E)-4-(2-(6-(2-(3-methylbenzylidene)hydrazinyl)-2-(pyridin-4-yl)pyrimidin-4-yloxy)ethyl)morpholine] | 94.6 |
| COCc1cc(N/N=C/c2cccc(C)c2)nc(-c2ccncc2)n1 [Compound 142, (E)-4-(methoxymethyl)-6-(2-(3-methylbenzylidene)hydrazinyl)-2-(pyridin-4-yl)pyrimidine] | 80 |
| Cc1cccc(/C=N/Nc2nc(N)nc(-c3cccnc3)n2)c1 [Compound 143, (E)-4-(2-(3-methylbenzylidene)hydrazinyl)-6-(pyridin-3-yl)-1,3,5-triazin-2-amine] | > 1000 |
| CSc1nc(NC(=O)Nc2cccc(C)c2)nc(-c2ccncc2)n1 [Compound 144, 1-(4-(methylthio)-6-(pyridin-4-yl)-1,3,5-triazin-2-yl)-3-m-tolylurea] | 128 |
